Results taken from patent publication US6191145A, “Orally-active nipecotamide glycolamide esters for the treatment of thrombosis disorders” (Ortho-McNeil Pharmaceutical, Inc., priority 1999, dated 2001).
Structures can show the parent of a compound that is named as a salt.

Key:
[1] = system: collagen-induced ex vivo platelet aggregation; test: Ex vivo dog study: duration of >50% inhibition of collagen-induced ex vivo platelet aggregation; assay type: in vivo
Protocol: Adult mongrel dogs (8-13 kg) were anesthetized with sodium pentobarbital (35 mg/kg, i.v.) and artificially respired. Arterial blood pressure and heart rate were measured using a Millar catheter-tip pressure transducer inserted in a femoral artery. Another Millar transducer was placed in the left ventricle (LV) via a carotid artery to measure LV end diastolic pressure and indices of myocardial contractility. A lead II electrocardiogram was recorded from limb electrodes. Catheters were placed in a femoral artery and vein to sample blood and infuse drugs, respectively. Responses were continuously monitored using a Modular Instruments data aquisition system.
Arterial blood samples (5-9 ml) were withdrawn into tubes containing 3.8% sodium citrate to prepare platelet rich plasma (PRP) and to determine effects on coagulation parameters: prothrombin time (PT) and activated partial thromboplastin time (APTT). Separate blood samples (1.5 ml) were withdrawn in EDTA to determine hematocrit and cell counts (platelets, RBC's and white cells). Template bleeding times were obtained from the buccal surface using a symplate incision devise and Whatman filter paper.
Aggregation of PRP was performed using a BioData aggregometer. Aggregation of whole blood used a Chronolog impedance aggregometer. PT and APTT were determined on either a BioData or ACL 3000+ coagulation analyser. Cells were counted with a Sysmex K-1000.
Compounds were solubilized in a small volume of dimethylformamide (DMF) and diluted with saline to a final concentration of 10% DMF. Compounds were administered by the intravenous route with a Harvard infusion pump. Doses was administered over a 15 min interval at a constant rate of 0.33 ml/min. Data were obtained after each dose and in 30 min intervals following the end of drug administration. Oral doses were administered as aqueous solutions via syringe.

[2] = system: Thrombin-induced aggregation of gel-filtered platelets; test: In vitro inhibition of thrombin-induced gel-filtered platelet aggregation; assay type: cell-based; conditions: Homo sapiens; for inhibition at 50 µM: read-out: Platelet Aggregation % Inh. (50 μM)
Protocol: The percentage of platelet aggregation is calculated as an increase in light transmission of compound-treated platelet concentrate vs. control-treated platelet concentrate. Human blood is obtained from drug free, normal donors into tubes containing 0.13M sodium citrate. Platelet rich plasma (PRP) is collected by centrifugation of whole blood at 200×g for 10 min at 25° C. The PRP (5 mL) is gel filtered through Sepharose 2B (bed volume 50 mL), and the platelet count is adjusted to 2×10^7 platelets per sample. The following constituents are added to a siliconized cuvette: concentrated platelet filtrate and Tyrode's buffer (0.14M NaCl, 0.0027M KCl, 0.012M NaHCO3,0.76 mM Na2 HPO4, 0.0055M glucose, 2 mg/mL BSA and 5.0 mM HEPES @ pH 7.4) in an amount equal to 350 μl, 50 μl of 20 mM calcium and 50 μl of the test compound. Aggregation is monitored in a BIODATA aggregometer for the 3 min following the addition of agonist (thrombin 50 μl of 1 unit/mL).

[3] = target: GPIIb/IIIa (Homo sapiens, UniProt P05106+P08514); test: In vitro solid phase purified glycoprotein IIb/IIIa binding assay (fibrinogen binding); conditions: for inhibition at 50 µM: read-out: Fibrinogen Binding % Inh. (50 μM)
Protocol: The plate is covered and incubated overnight at 4° C. The GPIIb/IIa solution is discarded and 150 μl of 5% BSA is added and incubated at RT for 1-3 h. The plate is washed extensively with modified Tyrodes buffer. Biotinylated fibrinogen (25 μl/well) at 2×final concentration is added to the wells that contain the test compounds (25 μl/well). The plate is covered and incubated at RT for 2-4 h. Twenty minutes prior to incubation completion, one drop of Reagent A (Vecta Stain ABC Horse Radish Peroxidase kit, Vector Laboratories, Inc.) and one drop Reagent B are added with mixing to 5 mL modified Tyrodes buffer mix and let stand. The ligand solution is discarded and the plate washed (5×200 μl/well) with modified Tyrodes buffer. Vecta Stain HRP-Biotin-Avidin reagent (50 μl/well, as prepared above) is added and incubated at RT for 15 min. The Vecta Stain solution is discarded and the wells washed (5×200 μl/well) with modified Tyrodes buffer. Developing buffer (10 mL of 50 mM citrate/phosphate buffer @ pH 5.3, 6 mg 2-phenylenediamine, 6 μl 30% H2 O2; 50 μl/well) is added and incubated at RT for 3-5 min, and then 2N H2 SO4 (50 μl/well) is added. The absorbance is read at 490 nm.

[4] = system: thrombin-induced platelet aggregation; conditions: L. Alig, J. Med. Chem. 1992, 35, 4393; read-out: IC50 against in vitro thrombin-induced platelet aggregation; cited from earlier work

GPIIb/IIIa, sequence (P08514 32-887 limits assumed): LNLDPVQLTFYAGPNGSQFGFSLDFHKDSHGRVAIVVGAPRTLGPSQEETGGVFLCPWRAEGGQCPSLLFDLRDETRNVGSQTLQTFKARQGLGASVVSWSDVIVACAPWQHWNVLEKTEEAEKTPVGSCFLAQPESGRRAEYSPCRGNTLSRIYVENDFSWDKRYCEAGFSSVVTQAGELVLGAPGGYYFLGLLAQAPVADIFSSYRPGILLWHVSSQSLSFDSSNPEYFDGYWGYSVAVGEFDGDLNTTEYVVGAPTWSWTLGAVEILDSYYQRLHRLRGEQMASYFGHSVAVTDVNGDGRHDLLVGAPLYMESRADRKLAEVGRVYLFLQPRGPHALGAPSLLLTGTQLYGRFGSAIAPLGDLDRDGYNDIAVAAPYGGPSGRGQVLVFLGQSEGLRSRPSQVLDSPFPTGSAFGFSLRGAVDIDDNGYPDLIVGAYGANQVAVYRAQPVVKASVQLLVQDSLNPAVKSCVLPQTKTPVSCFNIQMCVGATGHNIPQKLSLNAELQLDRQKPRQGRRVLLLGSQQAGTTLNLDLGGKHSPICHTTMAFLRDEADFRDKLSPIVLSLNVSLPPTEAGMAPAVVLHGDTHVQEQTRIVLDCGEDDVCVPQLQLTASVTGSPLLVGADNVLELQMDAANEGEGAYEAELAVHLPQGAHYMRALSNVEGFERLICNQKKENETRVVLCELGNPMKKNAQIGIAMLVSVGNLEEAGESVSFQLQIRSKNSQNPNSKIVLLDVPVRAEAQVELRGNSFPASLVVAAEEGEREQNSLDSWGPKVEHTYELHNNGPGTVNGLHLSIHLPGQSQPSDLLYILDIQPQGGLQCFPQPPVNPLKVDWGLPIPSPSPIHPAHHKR
GPIIb/IIIa, sequence (P08514 891-1039 limits assumed): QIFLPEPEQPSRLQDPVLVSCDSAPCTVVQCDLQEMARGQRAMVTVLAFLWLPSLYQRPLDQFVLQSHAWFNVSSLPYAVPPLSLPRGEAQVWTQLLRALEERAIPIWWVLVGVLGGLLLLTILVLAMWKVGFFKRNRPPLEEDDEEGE
GPIIb/IIIa, sequence (P05106 27-788): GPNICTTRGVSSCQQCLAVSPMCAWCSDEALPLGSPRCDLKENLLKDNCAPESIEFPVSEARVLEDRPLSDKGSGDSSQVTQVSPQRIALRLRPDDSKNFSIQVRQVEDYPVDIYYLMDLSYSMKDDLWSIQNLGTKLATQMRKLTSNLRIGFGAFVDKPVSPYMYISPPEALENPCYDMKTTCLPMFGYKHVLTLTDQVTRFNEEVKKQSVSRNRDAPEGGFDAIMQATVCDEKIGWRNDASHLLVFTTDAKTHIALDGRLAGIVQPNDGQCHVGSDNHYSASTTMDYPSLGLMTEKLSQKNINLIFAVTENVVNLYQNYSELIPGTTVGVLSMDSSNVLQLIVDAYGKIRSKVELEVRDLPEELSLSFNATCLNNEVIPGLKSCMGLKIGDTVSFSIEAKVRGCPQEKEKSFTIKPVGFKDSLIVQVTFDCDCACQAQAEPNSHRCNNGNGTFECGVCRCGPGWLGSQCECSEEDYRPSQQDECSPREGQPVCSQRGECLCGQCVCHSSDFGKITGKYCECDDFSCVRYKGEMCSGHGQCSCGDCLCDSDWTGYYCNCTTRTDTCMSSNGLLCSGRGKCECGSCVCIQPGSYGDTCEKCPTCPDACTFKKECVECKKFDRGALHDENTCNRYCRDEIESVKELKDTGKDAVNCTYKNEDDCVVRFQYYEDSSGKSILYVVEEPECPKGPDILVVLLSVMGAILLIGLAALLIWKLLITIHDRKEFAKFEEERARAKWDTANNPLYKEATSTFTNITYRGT

IC50 [2] [nM] | IC50 [3] [nM] | inhibition at 50 µM [3] [%] | SMILES | Duration of >50% inhibition of collagen-induced ex vivo platelet aggregation, oral dosing ([1]; 1 mpk) [min] | inhibition at 50 µM [2] [%] | Duration of >50% inhibition of collagen-induced ex vivo platelet aggregation, intravenous dosing ([1]; 0.1 mpk) [min] | Duration of >50% inhibition of collagen-induced ex vivo platelet aggregation, oral dosing ([1]; 3 mpk) [min] | Duration of >50% inhibition of collagen-induced ex vivo platelet aggregation, intravenous dosing ([1]; 1.0 mpk) [min] | IC50 [4] [nM] | Duration of >50% inhibition of collagen-induced ex vivo platelet aggregation, intravenous dosing ([1]; 0.3 mpk) [min]
510 | 2.5 | 100 | O=C(N[C@@H](CNC(=O)[C@@H]1CCCN(C(=O)/C=C/C2CCNCC2)C1)C(=O)OCC(=O)N1CCCCC1)OCc1ccccc1 [Compound 6, N-3-(4-Piperidinepropenoyl)-R-(-)nipecotyl-[(S)-2-benzyloxycarbonylamino-3-amino]propionic acid 2-(Piperidino)-2-oxoethyl ester.HCl] | 150 | 100 |  |  |  |  | 
270 | 9.7 | 100 | CCN(CC)C(=O)COC(=O)[C@H](CNC(=O)[C@@H]1CCCN(C(=O)/C=C/C2CCNCC2)C1)NC(=O)OCc1ccccc1 [Compound 5, N-3-(4-Piperidinepropenoyl)-R-(-)nipecotyl-[(S)-2-benzyloxycarbonylamino-3-amino]propionic acid 2-(Diethylamino)-2-oxoethyl ester.HCl] | > 240 | 100 | 60 |  |  |  | 
190 | 0.9 | 100 | CCN(CC)C(=O)COC(=O)C[C@H](NC(=O)[C@@H]1CCCN(C(=O)CCC2CCNCC2)C1)c1cncc(Br)c1 [Compound 3] |  | 100 |  | 90 |  |  | 
1100 | 5 | 100 | CCN(CC)C(=O)COC(=O)C[C@H](NC(=O)[C@@H]1CCCN(C(=O)CCC2CCNCC2)C1)c1ccc2c(c1)OCO2 [Compound 2] |  | 100 |  | 150 | 120 |  | 
 |  |  | CN(CC(=O)c1ccc(OCC(=O)O)c(OCC(=O)O)c1)C(=O)c1ccc(C(=N)N)cc1 [Ro-438857] |  |  |  |  |  | 94 | 
140 | 0.7 | 100 | CCN(CC)C(=O)COC(=O)C[C@H](NC(=O)[C@@H]1CCCN(C(=O)CCC2CCNCC2)C1)c1cccnc1 [Compound 1, N-3-(4-Piperidinepropionyl)-R-(-)-nipecotyl-[(S)-3-amino-3-(3-pyridyl)]propionic acid 2-(Diethylamino)-2-oxoethyl ester.2HCl] |  | 100 |  | > 180 |  |  | 60
 |  |  | O=C(N[C@@H](CNC(=O)[C@@H]1CCCN(C(=O)CCC2CCNCC2)C1)C(=O)O)OCc1ccccc1 [carboxylic acid congener, reference compound] |  |  |  | 180 |  |  | 
290 | 2 | 100 | CCN(CC)C(=O)COC(=O)[C@H](CNC(=O)[C@@H]1CCCN(C(=O)CCC2CCNCC2)C1)NC(=O)OCc1ccccc1 [Compound 4, N-3-(4-Piperidinepropionyl)-R-(-)nipecotyl-[(S)-2-benzyloxycarbonylamino-3-amino]propionic acid 2-(Diethylamino)-2-oxoethyl ester.HCl] |  | 100 | 60 | > 240 |  |  | 
